Common to all, as to assay: [3H]glycine transport by GlyT2 mutant in COS7 cells
What all share (type): cell-based

One experiment addresses T1, GlyT2 A639C mutant (Rattus norvegicus, UniProt P58295, A639C).
T1 construct: expressed in transfected cells; host or cells: COS7
T1 sequence (P58295 1-799 A639C): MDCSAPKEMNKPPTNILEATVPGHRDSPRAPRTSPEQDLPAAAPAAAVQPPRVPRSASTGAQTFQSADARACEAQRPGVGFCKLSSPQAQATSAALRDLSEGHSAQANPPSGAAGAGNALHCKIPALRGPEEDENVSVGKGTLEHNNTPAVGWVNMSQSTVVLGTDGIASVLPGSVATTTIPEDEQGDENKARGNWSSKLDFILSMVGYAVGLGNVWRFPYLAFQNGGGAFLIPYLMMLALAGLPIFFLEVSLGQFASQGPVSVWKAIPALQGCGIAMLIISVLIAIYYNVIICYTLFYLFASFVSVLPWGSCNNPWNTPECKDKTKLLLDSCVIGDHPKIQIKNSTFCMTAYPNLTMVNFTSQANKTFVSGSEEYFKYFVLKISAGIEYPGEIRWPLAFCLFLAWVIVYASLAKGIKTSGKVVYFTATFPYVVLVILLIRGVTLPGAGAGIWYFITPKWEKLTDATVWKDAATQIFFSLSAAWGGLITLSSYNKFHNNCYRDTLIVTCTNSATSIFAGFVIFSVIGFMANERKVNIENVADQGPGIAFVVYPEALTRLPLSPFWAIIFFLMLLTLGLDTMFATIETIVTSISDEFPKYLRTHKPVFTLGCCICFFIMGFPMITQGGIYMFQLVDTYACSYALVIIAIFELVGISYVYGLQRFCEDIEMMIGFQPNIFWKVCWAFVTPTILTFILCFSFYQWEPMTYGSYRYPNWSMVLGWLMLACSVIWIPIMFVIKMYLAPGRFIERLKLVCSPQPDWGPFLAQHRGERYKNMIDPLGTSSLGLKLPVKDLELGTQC
The text has this: (§1) To validate the predicted interactions between the inhibitors and GlyT2, we used systematic site-directed mutagenesis to construct substitution mutants of the potential residues involved in ligand binding. […] The GlyT2 residues predicted to interact with the inhibitors through its side chain were replaced by amino acids expected to force the loss of the interaction. In the cases where the interaction occurred through the backbone, the inserted amino acid sought to alter the disposition of the substituted residue to lose the coordination.
(§2) Substitution mutants were generated with the QuikChange II Site-Directed Mutagenesis kit (Agilent Technologies, Santa Clara, CA, USA), using rGlyT2 or rGlyT1 subcloned in pCDNA3.[47] The complete coding region of all of the constructs was sequenced to verify that only the desired mutation had been introduced. […] COS7 cells were grown and transfected using Turbofect Transfection Reagent (Thermo Fisher Scientific, Waltham, MA, USA), following the manufacturer’s protocol (2 μL reagent/μg of DNA). Cells were incubated for 48 h at 37 °C until used.
(§3) At the end of the desired time (usually 10 min), reactions were washed and terminated by aspiration. […] A nonlinear curve fitting method was used to obtain IC50 values using Graphpad Prism software, version 6.0, Graphpad, San Diego, CA, USA.

The target of a further experiment is T2, GlyT2 I292C mutant (Rattus norvegicus, UniProt P58295, I292C).
T2 construct: expressed in transfected cells; host or cells: COS7
T2 sequence (P58295 1-799 I292C): T1 sequence (P58295 1-799 A639C) with I292C, C639A
Text: as §1, §2, §3

A further experiment addresses T3, GlyT2 L576I mutant (Rattus norvegicus, UniProt P58295, L576I).
T3 construct: expressed in transfected cells; host or cells: COS7
T3 sequence (P58295 1-799 L576I): T1 sequence (P58295 1-799 A639C) with L576I, C639A
The conditions noted are these: for IC50: read-out: IC50 (Table S1).
Text: as §1, §2, §3

Substitutions are numbered along the chain they refer to. Read-outs that look alike come from different tables or passages of the source.

This note sets out measurements from paper PMC8691691 (ACS Chemical Neuroscience, 2021).

The IC50 is the point on the concentration scale where inhibition reaches its midpoint.

For `N[C@@H](COC(c1cccc(F)c1)c1ccccc1OCc1ccccc1)C(=O)O` (stereo partly shown) [ALX1393], the results for the 50% inhibitory concentration (IC50) at GlyT2 A639C mutant (read-out: IC50 (Table S1)), on GlyT2 I292C mutant (read-out: IC50 (Table S1)) and at GlyT2 L576I mutant were 22 ± 4 nM, 36 ± 4 nM and 101 ± 22 nM, respectively. In addition, on GlyT2 L576I mutant (L576I, 1 μM inhibitor, 25 μM glycine), the “effect of mutation on inhibition of glycine transport” value was “prevented the inhibition by ALX1393 to a greater extent than that of ORG25543”.

Take `COc1cc(C(=O)NCC2(N(C)C)CCCC2)cc(OC)c1OCc1ccccc1` [ORG25543, N-[[1-(dimethylamino)cyclopentyl]methyl]-3,5-dimethoxy-4-(phenylmethoxy)benzamide]: the IC50 at GlyT2 A639C mutant was 51 ± 2 nM; against GlyT2 I292C mutant, 24 ± 3 nM; on GlyT2 L576I mutant, 111 ± 15 nM.
